Structures are written as SMILES. Where only a bound is given, the exact number is not on record here.

Results on 1 compound are retold here after patent US6066616A, “Somatostatin analogue composition and use in treating breast cancer” (Novartis AG, priority 1987, dated 2000).

The nature of this data set: tolerated dose of octreotide. The conditions noted are these: in vivo. The procedure: Thus for octreotide, GI tumours may be treated initially with 0.05 mg once or twice a day by sub-cutaneous injection. Dosage can be increased to 0.2 mg three times daily. For acromegaly daily doses of from 100 to 300 μg s.c. may be used. Octreotide is tolerated at least to 1 mg.

In turn, `C[C@@H](O)[C@@H]1NC(=O)[C@H](CCCCN)NC(=O)[C@@H](Cc2c[nH]c3ccccc23)NC(=O)[C@H](Cc2ccccc2)NC(=O)[C@@H](NC(=O)[C@H](N)Cc2ccccc2)CSSC[C@@H](C(=O)N[C@H](CO)[C@@H](C)O)NC1=O` [Octreotide, octreotide] yielded a tolerated dose not below 1 mg.
